Measured values reported in ChEMBL document CHEMBL3044652, “Synthesis of novel 2-alkyl-4-substituted-amino-pyrazolo[3,4-d]pyrimidines as new leads for anti-bacterial and anti-cancer activity” (2013).

How the values were obtained:
Format in all cases: functional
Escherichia coli [1] = experiment: Antibacterial activity against Escherichia coli NCIM 2803 at 20 ug/ml after 24 hr by agar diffusion method; conditions: NCIM 2803, 24 h, read-out: IZ
Bacillus subtilis [2] = experiment: Antibacterial activity against Bacillus subtilis NCIM 2545 at 20 ug/ml after 24 hr by agar diffusion method; conditions: NCIM 2545, 24 h, read-out: IZ
Staphylococcus aureus [3] = experiment: Antibacterial activity against Staphylococcus aureus NCIM 5021 at 20 ug/ml after 24 hr by agar diffusion method; conditions: NCIM 5021, 24 h, read-out: IZ
[4] = test system: Staphylococcus epidermidis; experiment: Antibacterial activity against Staphylococcus epidermidis NCIM 2493 at 20 ug/ml after 24 hr by agar diffusion method; conditions: NCIM 2493, 24 h, read-out: IZ
G-361 [5] = experiment: Cytotoxicity against Homo sapiens (human) G361 cells assessed as cell growth at 10^-7 M by SRB assay relative to control; conditions: read-out: Activity
G-361 [6] = experiment: Cytotoxicity against Homo sapiens (human) G361 cells assessed as cell growth at 10^-6 M by SRB assay relative to control; conditions: read-out: Activity
G-361 [7] = experiment: Cytotoxicity against Homo sapiens (human) G361 cells assessed as cell growth at 10^-5 M by SRB assay relative to control; conditions: read-out: Activity
G-361 [8] = experiment: Cytotoxicity against Homo sapiens (human) G361 cells assessed as cell growth at 10^-4 M by SRB assay relative to control; conditions: read-out: Activity
G-361 [9] = experiment: Cytotoxicity against Homo sapiens (human) G361 cells by SRB assay
Escherichia coli [10] = experiment: Antibacterial activity against Escherichia coli NCIM 2803 at 10 ug/ml after 24 hr by agar diffusion method; conditions: NCIM 2803, 24 h, read-out: IZ
Bacillus subtilis [11] = experiment: Antibacterial activity against Bacillus subtilis NCIM 2545 at 10 ug/ml after 24 hr by agar diffusion method; conditions: NCIM 2545, 24 h, read-out: IZ
Staphylococcus aureus [12] = experiment: Antibacterial activity against Staphylococcus aureus NCIM 5021 at 10 ug/ml after 24 hr by agar diffusion method; conditions: NCIM 5021, 24 h, read-out: IZ
[13] = test system: Staphylococcus epidermidis; experiment: Antibacterial activity against Staphylococcus epidermidis NCIM 2493 at 10 ug/ml after 24 hr by agar diffusion method; conditions: NCIM 2493, 24 h, read-out: IZ

## CCCCNc1ncnc2c1cnn2-c1ccccc1
Escherichia coli [1]
  zone of inhibition at 20 µg/mL: 13.6 mm
Bacillus subtilis [2]
  zone of inhibition at 20 µg/mL: 13 mm
Staphylococcus aureus [3]
  zone of inhibition at 20 µg/mL: 13.3 mm
[4]
  zone of inhibition at 20 µg/mL: 13.3 mm
G-361 [5]
  growth at 0.1 µM: 100%
G-361 [6]
  growth at 1 µM: 90.8%
G-361 [7]
  growth at 10 µM: 43.4%
G-361 [8]
  growth at 100 µM: -4.5%
G-361 [9]
  GI50: 2.1 µM
  LC50: > 100 µM
  TGI: 37 µM

## CCCCNc1nc(C(C)C)nc2c1cnn2-c1ccccc1
Escherichia coli [1]
  zone of inhibition at 20 µg/mL: 13.3 mm
Bacillus subtilis [2]
  zone of inhibition at 20 µg/mL: 12.8 mm
Staphylococcus aureus [3]
  zone of inhibition at 20 µg/mL: 14.4 mm
[4]
  zone of inhibition at 20 µg/mL: 14.1 mm
Escherichia coli [10]
  zone of inhibition at 10 µg/mL: 0 mm
Bacillus subtilis [11]
  zone of inhibition at 10 µg/mL: 0 mm
Staphylococcus aureus [12]
  zone of inhibition at 10 µg/mL: 11 mm
[13]
  zone of inhibition at 10 µg/mL: 11 mm
G-361 [5]
  growth at 0.1 µM: 100%
G-361 [6]
  growth at 1 µM: 100%
G-361 [7]
  growth at 10 µM: 100%
G-361 [8]
  growth at 100 µM: 45.4%
G-361 [9]
  GI50: > 100 µM
  LC50: > 100 µM
  TGI: > 100 µM

## CC(C)c1nc(N2CCOCC2)c2cnn(-c3ccccc3)c2n1
Escherichia coli [1]
  zone of inhibition at 20 µg/mL: 14.6 mm
Bacillus subtilis [2]
  zone of inhibition at 20 µg/mL: 14.4 mm
Staphylococcus aureus [3]
  zone of inhibition at 20 µg/mL: 14.2 mm
[4]
  zone of inhibition at 20 µg/mL: 14.3 mm
Escherichia coli [10]
  zone of inhibition at 10 µg/mL: 10.6 mm
Bacillus subtilis [11]
  zone of inhibition at 10 µg/mL: 11.3 mm
Staphylococcus aureus [12]
  zone of inhibition at 10 µg/mL: 10.3 mm
[13]
  zone of inhibition at 10 µg/mL: 11 mm
G-361 [5]
  growth at 0.1 µM: 100%
G-361 [6]
  growth at 1 µM: 92.5%
G-361 [7]
  growth at 10 µM: 77.6%
G-361 [8]
  growth at 100 µM: 6.9%
G-361 [9]
  GI50: 2.6 µM
  LC50: > 100 µM
  TGI: > 100 µM

## CCCCNc1nc(C)nc2c1cnn2-c1ccccc1
Escherichia coli [1]
  zone of inhibition at 20 µg/mL: 14.4 mm
Bacillus subtilis [2]
  zone of inhibition at 20 µg/mL: 13.8 mm
Staphylococcus aureus [3]
  zone of inhibition at 20 µg/mL: 14.6 mm
[4]
  zone of inhibition at 20 µg/mL: 14.5 mm
Escherichia coli [10]
  zone of inhibition at 10 µg/mL: 11 mm
Bacillus subtilis [11]
  zone of inhibition at 10 µg/mL: 0 mm
Staphylococcus aureus [12]
  zone of inhibition at 10 µg/mL: 11.3 mm
[13]
  zone of inhibition at 10 µg/mL: 11.1 mm
G-361 [5]
  growth at 0.1 µM: 100%
G-361 [6]
  growth at 1 µM: 100%
G-361 [7]
  growth at 10 µM: 100%
G-361 [8]
  growth at 100 µM: -30%
G-361 [9]
  GI50: 2.4 µM
  LC50: > 100 µM
  TGI: > 100 µM

## CCCNc1ncnc2c1cnn2-c1ccccc1
Escherichia coli [1]
  zone of inhibition at 20 µg/mL: 13.2 mm
Bacillus subtilis [2]
  zone of inhibition at 20 µg/mL: 13.2 mm
Staphylococcus aureus [3]
  zone of inhibition at 20 µg/mL: 12.7 mm
[4]
  zone of inhibition at 20 µg/mL: 13.3 mm
G-361 [5]
  growth at 0.1 µM: 100%
G-361 [6]
  growth at 1 µM: 100%
G-361 [7]
  growth at 10 µM: 99.7%
G-361 [8]
  growth at 100 µM: 64.8%
G-361 [9]
  GI50: > 100 µM
  LC50: > 100 µM
  TGI: > 100 µM

## CC1(C)S[C@@H]2[C@H](NC(=O)[C@H](N)c3ccc(O)cc3)C(=O)N2[C@H]1C(=O)O [AMOXICILLIN]
Escherichia coli [1]
  zone of inhibition at 20 µg/mL: 18.7 mm
Bacillus subtilis [2]
  zone of inhibition at 20 µg/mL: 19 mm
Staphylococcus aureus [3]
  zone of inhibition at 20 µg/mL: 17.3 mm
[4]
  zone of inhibition at 20 µg/mL: 16.6 mm
Escherichia coli [10]
  zone of inhibition at 10 µg/mL: 15.5 mm
Bacillus subtilis [11]
  zone of inhibition at 10 µg/mL: 16.3 mm
Staphylococcus aureus [12]
  zone of inhibition at 10 µg/mL: 16.6 mm
[13]
  zone of inhibition at 10 µg/mL: 13 mm
